Data from paper PMC11042424, “Development of a First-in-Class RIPK1 Degrader to Enhance Antitumor Immunity” (Research Square, 2024).

How the values were obtained:
B16F10 cells = test: TNFα-mediated apoptosis in B16F10 cells; type: cell-based, mouse; settings: 1 μM, TNFα 100 ng/mL, 72 hours
Excerpt: Figure 3 LD4172 sensitizes B16F10 cells to TNFα-mediated apoptosis. A, Representative flow cytometry dot plots of apoptosis. In all four plots, viable cells are seen in the left lower quadrant (FITC-/PI-), early apoptotic cells in the right lower quadrant (FITC+/PI-), and late apoptotic cells in the right upper quadrant (FITC+/PI+). B, Representative images of PI (red) and caspase 3/7 (Cas3/7+, green) staining of B16F10 cells. Cell death assessed by PI uptake using Cytation 5 imager. C, Western blots for the expression of cleaved caspase3, cleaved caspase7, and cleaved PARP in B16F10 cells. D, Quantification of extracellular ATP level. Western blots for the expression of HMGB1 and calreticulin in B16F10 cells. E, Immunofluorescence staining of HMGB1 in B16F10 cells. B16F10 cells were treated in the presence or absence of TNFα (100 ng/mL), Z-VAD-FMK (25 μM), LD4172 (1 μM), and/or T2I (1 μM) as indicated for 72 hours. Data are representative of three independent experiments. Error bars represent SD.
Apoptosis quantification was conducted utilizing a FITC-conjugated Annexin V/PI assay kit (556547, BD Biosciences) and analyzed through flow cytometry. Briefly, 2×10^5 of B16F10 cells were seeded onto six-well plates and treated as specified for 72 hours at 37°C. Treated and untreated cells were harvested, washed with PBS, and resuspended in 100 μl of binding buffer. […]

RIPK1 = biological target: T1, RIPK1 (Mus musculus, UniProt Q60855); test: In vivo pharmacodynamics: RIPK1 levels in tissues; set-up: observed a 60% reduction in RIPK1 levels in tumors; from tissue; host or cells: tumors, spleen, lymph nodes, PBMCs, lungs, bone marrow of C57BL/6J mice; species or system C57BL/6J mice
T1 sequence (Q60855 1-656): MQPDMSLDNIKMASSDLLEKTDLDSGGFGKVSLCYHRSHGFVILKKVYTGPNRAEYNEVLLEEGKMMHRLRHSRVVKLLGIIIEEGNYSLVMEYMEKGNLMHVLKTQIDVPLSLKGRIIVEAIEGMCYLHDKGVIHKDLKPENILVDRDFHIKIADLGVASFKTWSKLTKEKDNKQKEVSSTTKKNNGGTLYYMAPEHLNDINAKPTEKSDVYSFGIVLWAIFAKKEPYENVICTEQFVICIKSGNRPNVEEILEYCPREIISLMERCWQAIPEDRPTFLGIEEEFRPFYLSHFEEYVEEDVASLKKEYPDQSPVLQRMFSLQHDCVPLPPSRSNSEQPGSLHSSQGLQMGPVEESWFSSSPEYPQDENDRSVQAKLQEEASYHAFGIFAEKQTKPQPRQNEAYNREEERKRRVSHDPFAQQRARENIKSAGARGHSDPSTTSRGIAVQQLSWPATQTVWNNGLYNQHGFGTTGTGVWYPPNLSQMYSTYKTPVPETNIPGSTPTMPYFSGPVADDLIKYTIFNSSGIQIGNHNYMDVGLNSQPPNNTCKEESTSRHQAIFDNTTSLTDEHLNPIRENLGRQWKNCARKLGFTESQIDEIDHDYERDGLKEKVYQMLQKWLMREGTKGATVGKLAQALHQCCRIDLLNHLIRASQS
Protocol: Figure 4 LD4172 synergizes with Anti-PD1 to inhibit tumor growth. A, Plasma concentrations of LD4172 in C57BL/6J mice administered 1 mg/kg intravenously (i.v.) or 10 mg/kg intraperitoneally (i.p.) (n=4). B, Representative immunoblots of RIPK1 in different tissues of C57BL/6J mice treated with LD4172 (n=3–4). C, Densitometric analysis of RIPK1 protein levels in different tissues (n=3 or 4). D, Representative immunoblots of RIPK1 levels of B16F10 cells transduced with gRNA specific for RIPK1 or non-targetable control (sgNC). E, B16F10-RIPK1-KO tumors sensitized to anti-PD1 treatment: 3×10^5 B16F10 cells transduced with gRNA specific for RIPK1 or non-targetable control (sgNC) were inoculated into C57BL/6J mice. After seven days, mice with measurable tumors (~100 mm3) were randomly treated with or without anti-PD1 in vivo (100 μg per dose, i.p., every three days, n=8). F, Tumor growth curve of mice with B16F10 tumors treated with LD4172 and/or anti-PD1 (n=8). C57B6/J mice were subcutaneously inoculated with 3×10^5 B16F10 tumor cells. After seven days (tumor size ~ 100 mm3), mice were treated every three days with anti- PD1 (100 μg per dose, i.p.), daily with LD4172 (20 mg/kg, i.p.), a combination of LD4172 and anti-PD1 (same dose as their individual doses), or their corresponding vehicle control. G, Kaplan-Meier survival curve for all experimental groups. H, Final tumor weight (g) from F after 22d of treatment (n=8). I, Representative images of B16F10 tumors collected at the end of treatment. J, Mouse body weight (n=8). K, Tumor growth curve of mice with B16F10 tumors treated with T2I and/or anti-PD1 (n=8). The experimental conditions and treatment regimens were the same as F except using the RIPK1 kinase inhibitor T2I (20 mg/kg, i.p.) to replace LD4172. Representative data from at least three independent experiments are shown. Data are expressed as the mean ± SEM. * p<0.05; ** p<0.01; *** p<0.001, **** p<0.0001, respectively. ns, indicates no statistical significance.
To investigate the pharmacodynamics of LD4172 in vivo, we administered LD4172 via the i.p. route and observed a 60% reduction in RIPK1 levels in tumors (20 mg/kg, b.i.d., i.p.) (Fig. 4B–C).

[1] = Stability in mouse liver S9 fractions; type: in vitro ADME

## Cc1ncsc1-c1ccc([C@H](C)NC(=O)[C@@H]2C[C@@H](O)CN2C(=O)[C@@H](NC(=O)CCCCCCCCCCC(=O)NCCCn2cc(-c3ccc4c(c3)CCN4C(=O)Cc3cccc(OC(F)(F)F)c3)c3c(N)ncnc32)C(C)(C)C)cc1 [LD4172]
B16F10 cells
  cell death / apoptosis in combination with TNFα: significant cell death
RIPK1; 20 mg/kg, b.i.d., i.p.
  reduction in RIPK1 levels in tumors: 60%
RIPK1; i.p.
  RIPK1 degradation in lymph nodes, PBMCs, lungs, and bone marrow: no significant RIPK1 degradation
  RIPK1 degradation in the spleen: less than 50%
RIPK1; intratumoral vs i.p.
  RIPK1 degradation in tumors, intratumoral administration: improved RIPK1 degradation in the tumors
[1]
  half-life: 9.7 min
  intrinsic clearance (CLint): 71.6 μL·min^− 1·mg^− 1 protein
